Values quoted from earlier work as cited in PMC8698377, “In Vitro Hepatic Assessment of Cineole and Its Derivatives in Common Brushtail Possums (Trichosurus vulpecula) and Rodents” (Biology, 2021).
Read-outs that look alike come from different tables or passages of the source.

Tests used:
CYP3A [1] = system: CYP3A; design: method as in PMID 12593759; details: possums, ketoconazole 5 µM, cited from earlier work
CYP3A [2] = system: CYP3A; design: method as in PMID 12593759; details: rats, ketoconazole; cited from earlier work

CC(=O)N1CCN(c2ccc(OCC3COC(Cn4ccnc4)(c4ccc(Cl)cc4Cl)O3)cc2)CC1 (stereo not drawn) [Ketoconazole, ketoconazole]
reduction of the formation of 9-hydroxycineole (CYP3A [1]; cineole concentration 10 µM): 15%
reduction of the formation of 9-hydroxycineole (CYP3A [1]; cineole concentration 100 µM): 30%
reduction of the metabolite formation (CYP3A [2]): 85%
